The subject of assay [1] is MDA-MB-468. In words: Cytotoxicity against human MDA-MB-468 cells harboring constitutively harboring activated STAT3 assessed as inhibition of cell viability at 10 uM after 72 hrs by MTT assay. Type of assay: functional. Particulars: MDA-MB-468, 72 h. A general note: Tetrazolium dyes change colour on reduction, which living cells bring about.
Assay [2] has as its target T1, Signal transducer and activator of transcription 3 (Homo sapiens, UniProt P40763). As to the kind of experiment: Inhibition of STAT3 in IL-6-stimulated human HepG2 cells at 10 uM treated for 1 hr prior to IL-6 challenge measured after 5.5 hrs by luciferase reporter gene assay. Type of assay: cell-based. A general note: Reporter assays use an easily measured gene product as a stand-in for the process of interest.

Assay [3] concerns the target T1, Signal transducer and activator of transcription 3. In words: Inhibition of STAT3 phosphorylation at Tyr705 in IL-6 stimulated human HepG2 cells at 50 uM treated for 6 hrs before IL-6 stimulation measured after 15 mins by Western blot analysis. Type of assay: cell-based. A general note: In western blotting, separated proteins are transferred to a membrane and probed.

Assay [4] concerns the target Tyrosine-protein kinase JAK2 (Homo sapiens) (UniProt O60674). As to the kind of experiment: Effect on JAK2 phosphorylation in IL-6 stimulated human HepG2 cells at 50 uM treated for 6 hrs before IL-6 stimulation measured after 15 mins by Western blot analysis. It counts as cell-based.
Assay [5] relates to HepG2. As to the kind of experiment: Effect on STAT3 level in IL-6 stimulated human HepG2 cells at 50 uM treated for 6 hrs before IL-6 stimulation measured after 15 mins by Western blot analysis. It counts as functional, cell-based.
In assay [6] the test system is MDA-MB-468. In words: Cytotoxicity against human MDA-MB-468 cells harboring constitutively harboring activated STAT3 assessed as inhibition of cell viability after 72 hrs by MTT assay. It counts as functional, cell-based. Conditions: MDA-MB-468, 72 h.
Assay [7] has as its system HepG2. In words: Effect on JAK2 level in IL-6 stimulated human HepG2 cells at 50 uM treated for 6 hrs before IL-6 stimulation measured after 15 mins by Western blot analysis. It counts as functional, cell-based.
Assay [8] deals with T1, Signal transducer and activator of transcription 3. As to the kind of experiment: Inhibition of STAT3 phosphorylation at Tyr705 in IL-6 stimulated human HepG2 cells treated for 6 hrs before IL-6 stimulation measured after 15 mins by Western blot analysis. Type of assay: cell-based.
Assay [9] shares this target. In words: Inhibition of STAT3 in IL-6-stimulated human HepG2 cells treated for 1 hr prior to IL-6 challenge measured after 5.5 hrs by luciferase reporter gene assay. Type of assay: cell-based.
Assay [10] addresses T2, Signal transducer and activator of transcription 1-alpha/beta (Homo sapiens) (UniProt P42224).
T2 sequence (whole entry): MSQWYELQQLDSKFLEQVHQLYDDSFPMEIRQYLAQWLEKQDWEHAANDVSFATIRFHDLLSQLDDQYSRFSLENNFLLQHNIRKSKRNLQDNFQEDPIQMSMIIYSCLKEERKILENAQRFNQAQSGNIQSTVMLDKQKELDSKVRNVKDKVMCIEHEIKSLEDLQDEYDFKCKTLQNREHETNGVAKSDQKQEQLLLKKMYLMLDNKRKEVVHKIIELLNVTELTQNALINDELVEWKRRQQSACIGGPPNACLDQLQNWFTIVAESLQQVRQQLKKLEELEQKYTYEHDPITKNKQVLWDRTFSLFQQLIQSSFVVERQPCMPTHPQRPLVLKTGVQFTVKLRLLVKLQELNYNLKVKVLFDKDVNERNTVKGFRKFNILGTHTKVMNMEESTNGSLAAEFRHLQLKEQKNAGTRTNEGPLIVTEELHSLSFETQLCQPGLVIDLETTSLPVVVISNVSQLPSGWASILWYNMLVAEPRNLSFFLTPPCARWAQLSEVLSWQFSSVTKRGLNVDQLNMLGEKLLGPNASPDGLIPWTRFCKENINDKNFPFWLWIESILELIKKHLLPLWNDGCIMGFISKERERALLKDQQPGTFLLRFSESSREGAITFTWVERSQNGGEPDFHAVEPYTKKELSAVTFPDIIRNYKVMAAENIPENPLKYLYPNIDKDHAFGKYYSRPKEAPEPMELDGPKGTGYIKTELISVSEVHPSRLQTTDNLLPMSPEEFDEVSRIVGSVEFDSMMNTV
As to the kind of experiment: Inhibition of IFN-gamma-stimulated STAT1 (unknown origin) activity at 10 uM.

The species entered for a further assay is Homo sapiens. In words: Inhibition of TNF-alpha-stimulated NF-kappaB (unknown origin) activity at 10 uM.

pIC50: −log10 of the molar value. Active and inactive are the calls of the source. The rule behind the calls is not given here.

Usually inhibition stands for the change of the read-out against control, counted positive when it falls. By pIC50 is commonly meant the negative decadic logarithm of the IC50, by convention in mol/L.

T1 sequence (P40763 whole entry): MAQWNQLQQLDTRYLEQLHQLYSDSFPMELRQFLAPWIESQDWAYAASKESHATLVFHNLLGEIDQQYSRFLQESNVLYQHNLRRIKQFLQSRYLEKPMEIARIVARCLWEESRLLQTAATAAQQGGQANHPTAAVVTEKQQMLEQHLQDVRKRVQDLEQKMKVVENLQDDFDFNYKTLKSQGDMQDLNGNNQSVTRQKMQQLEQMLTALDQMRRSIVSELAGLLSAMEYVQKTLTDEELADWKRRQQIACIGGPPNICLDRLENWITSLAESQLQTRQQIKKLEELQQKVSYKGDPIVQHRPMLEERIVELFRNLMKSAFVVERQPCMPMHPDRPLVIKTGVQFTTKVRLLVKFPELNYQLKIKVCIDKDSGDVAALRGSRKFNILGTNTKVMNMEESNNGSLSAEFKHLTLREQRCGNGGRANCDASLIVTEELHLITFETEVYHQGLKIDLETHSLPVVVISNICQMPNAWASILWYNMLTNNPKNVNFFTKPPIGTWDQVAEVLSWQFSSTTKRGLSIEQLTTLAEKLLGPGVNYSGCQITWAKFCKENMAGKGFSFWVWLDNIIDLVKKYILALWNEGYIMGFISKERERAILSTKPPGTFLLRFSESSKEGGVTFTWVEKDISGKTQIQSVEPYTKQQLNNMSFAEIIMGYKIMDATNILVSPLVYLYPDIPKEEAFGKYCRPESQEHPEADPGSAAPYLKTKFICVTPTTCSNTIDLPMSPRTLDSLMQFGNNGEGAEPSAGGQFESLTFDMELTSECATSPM
Sequence of Tyrosine-protein kinase JAK2 (Homo sapiens) (O60674 whole entry): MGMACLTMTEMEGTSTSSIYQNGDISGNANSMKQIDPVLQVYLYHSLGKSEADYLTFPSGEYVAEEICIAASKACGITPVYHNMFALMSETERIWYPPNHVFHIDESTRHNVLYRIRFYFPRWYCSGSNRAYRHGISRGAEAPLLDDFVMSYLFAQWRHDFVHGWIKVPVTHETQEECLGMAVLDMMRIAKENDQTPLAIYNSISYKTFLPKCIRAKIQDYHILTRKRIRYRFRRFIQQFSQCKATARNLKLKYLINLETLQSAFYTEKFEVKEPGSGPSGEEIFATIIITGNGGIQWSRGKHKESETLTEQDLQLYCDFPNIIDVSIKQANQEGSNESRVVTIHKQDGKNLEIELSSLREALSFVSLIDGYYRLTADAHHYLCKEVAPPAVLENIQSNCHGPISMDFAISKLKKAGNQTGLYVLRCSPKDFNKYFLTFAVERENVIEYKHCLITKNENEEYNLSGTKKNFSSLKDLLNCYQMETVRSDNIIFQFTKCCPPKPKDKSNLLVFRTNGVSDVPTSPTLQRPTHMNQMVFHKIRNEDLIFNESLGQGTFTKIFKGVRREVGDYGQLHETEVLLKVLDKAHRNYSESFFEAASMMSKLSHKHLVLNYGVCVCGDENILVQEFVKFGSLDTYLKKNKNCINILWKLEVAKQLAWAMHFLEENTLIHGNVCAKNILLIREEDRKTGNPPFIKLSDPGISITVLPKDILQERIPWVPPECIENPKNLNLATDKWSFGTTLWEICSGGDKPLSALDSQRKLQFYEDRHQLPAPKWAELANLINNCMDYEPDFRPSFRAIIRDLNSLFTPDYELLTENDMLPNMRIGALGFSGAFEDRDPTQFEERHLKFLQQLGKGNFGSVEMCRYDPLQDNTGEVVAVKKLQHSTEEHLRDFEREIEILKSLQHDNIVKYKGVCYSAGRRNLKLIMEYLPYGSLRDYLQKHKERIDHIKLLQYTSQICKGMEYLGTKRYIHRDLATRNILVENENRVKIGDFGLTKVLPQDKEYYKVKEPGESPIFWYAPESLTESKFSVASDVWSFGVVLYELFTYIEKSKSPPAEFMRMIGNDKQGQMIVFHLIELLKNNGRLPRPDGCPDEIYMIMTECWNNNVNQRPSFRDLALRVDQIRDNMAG

As for `CCCC(C)Oc1ccc(C(=O)Nc2ccc3nc(SCC(=O)Nc4c(CC)cccc4CC)sc3c2)cc1` (centres undefined), in the assay on MDA-MB-468 [1], the inhibition at 10 µM amounted to 34.9%. The inhibition in assay [2] is 25.8%.
Consider `CCCC(C)Oc1ccc(C(=O)Nc2ccc3nc(SCC(=O)N[C@@H](C)c4ccccc4)sc3c2)cc1` (some centres undefined), for which the inhibition entry in assay [3] is “Active”. Also, the result (in assay [4]; in the assay with HepG2 [5]; with HepG2 [7]) was inactive. In the assay on MDA-MB-468 [6], the negative-log IC50 (pIC50) was 4.79. Further, the inhibition at 10 µM in the assay with MDA-MB-468 [1] is 51.4%. For the same compound, the inhibition in assay [2] amounted to 51.1%.
Turning to `COc1ccc(C(=O)Nc2ccc3nc(SCC(=O)NCc4ccc(F)cc4)sc3c2)cc1`, the inhibition at 10 µM in the assay on MDA-MB-468 [1] worked out at 5.48%.
Regarding `CCCCOc1ccc(C(=O)Nc2ccc3nc(SC(C)C(=O)Nc4c(C)cc(C)cc4C)sc3c2)cc1` (centres undefined), the inhibition in assay [2] turned out to be 21.5%.
With `O=C(CSc1nc2ccc(NC(=O)c3ccccc3)cc2s1)Nc1ccc(F)c(Cl)c1`, in the assay with MDA-MB-468 [1], the inhibition at 10 µM was 9.04%.
Turning to `CCc1cccc(CC)c1NC(=O)CSc1nc2ccc(NC(=O)c3cccnc3)cc2s1`, in the assay with MDA-MB-468 [1], the inhibition at 10 µM worked out at 8.23%. In addition, the inhibition in [2] was 14.4%.
For `CCC(=O)Nc1ccc2nc(SCC(=O)Nc3c(CC)cccc3CC)sc2c1`, in that order: -12% and 2.36%.
The like results for `CCCCCOc1ccc(C(=O)Nc2ccc3nc(SCC(=O)N[C@@H](C)c4ccccc4)sc3c2)cc1` were, in that order, 61.1% and 30.7%.
As for `CCc1cccc(CC)c1NC(=O)CSc1nc2ccc(NC(=O)c3ccccc3OC)cc2s1`, the inhibition at 10 µM in the assay with MDA-MB-468 [1] came to 23.9%. The inhibition in assay [2] amounted to 25.8%.
In the case of `CCc1cccc(CC)c1NC(=O)CSc1nc2ccc(NC(=O)c3ccc(OCc4ccccc4)cc3)cc2s1`, the inhibition at 10 µM with MDA-MB-468 [1] turned out to be 44.6%. Further, the inhibition in [2] is 22.6%.
As for `CCc1cccc(CC)c1NC(=O)CSc1nc2ccc(NC(=O)c3ccc(OC)cc3)cc2s1`, the inhibition at 10 µM in the assay with MDA-MB-468 [1] was -0.77%.
Consider `CCc1cccc(CC)c1NC(=O)CSc1nc2ccc(NC(=O)Cc3ccccc3OC)cc2s1`, for which, in the assay on MDA-MB-468 [1], the inhibition at 10 µM is -12.3%.
Regarding `CCCCOc1ccc(C(=O)Nc2ccc3nc(SCC(=O)Nc4c(CC)cccc4CC)sc3c2)cc1`, the inhibition in [2] was 49.5%.
Still for that read-out and setting: next, `COc1ccc(NCc2nnc(SCC(=O)Nc3cccc4ccccc34)n2-c2ccc(OC)cc2)cc1`: 24%.
On to `CCc1cccc(CC)c1NC(=O)CSc1nc2ccc(NC(=O)c3ccncc3)cc2s1`, for which the inhibition at 10 µM in the assay on MDA-MB-468 [1] was found to be 12.6%. The inhibition in assay [2] worked out at 39.1%.
On to `CCc1cccc(CC)c1NC(=O)CSc1nc2ccc(NC(=O)C(C)Cl)cc2s1` (centres undefined), for which the inhibition at 10 µM with MDA-MB-468 [1] was -4.54%. Besides, the inhibition in assay [2] was -7.98%.
On to `COc1ccc(C(=O)Nc2ccc3nc(SCC(=O)NCc4ccc([N+](=O)[O-])cc4)sc3c2)cc1`, for which the inhibition at 10 µM in the assay on MDA-MB-468 [1] is -20.4%. The inhibition in assay [2] is 23.8%.
As to `COc1ccc(C(=O)Nc2ccc3nc(SCC(=O)N[C@@H](C)c4ccccc4)sc3c2)cc1`, the inhibition at 10 µM with MDA-MB-468 [1] was -44.7%. The inhibition in assay [2] worked out at 43%.
The like results for `CCc1cccc(CC)c1NC(=O)CSc1nc2ccc(NC(=O)C(C)C)cc2s1` were, in that order, -17.4% and -8.31%.
For `COc1cc(/C=C/C(=O)CC(=O)/C=C/c2ccc(O)c(OC)c2)ccc1O` [CURCUMIN], the inhibition entry is “Dose-dependent effect” in [8] and 30.7% in assay [2]. Also, the pIC50 was 3.71 in the assay with MDA-MB-468 [6] and 4.72 in [9]. Also, the inhibition at 10 µM in the assay with MDA-MB-468 [1] came to 3.88%.
With `CCc1cccc(CC)c1NC(=O)CSc1nc2ccc(NC(=O)c3ccc([N+](=O)[O-])cc3)cc2s1`, the inhibition at 10 µM in the assay on MDA-MB-468 [1] was 6.13%. Besides, in assay [2], the inhibition is -5.71%.
For the compound `COc1ccc(C(=O)Nc2ccc(C(=O)OCC(=O)c3cccc([N+](=O)[O-])c3)cc2)cc1OC`, the values for the inhibition (in assay [10]; in assay [2]; in the assay listed under Homo sapiens) were 13.8%, 38.5% and -4.32%, respectively.
Consider `COc1ccc(C(=O)Nc2ccc3nc(SCC(=O)N[C@H](C)c4ccccc4)sc3c2)cc1`, for which, in the assay on MDA-MB-468 [1], the inhibition at 10 µM was -56.8%. Also, the inhibition in assay [2] was -0.31%.
Regarding `COc1ccc(C(=O)Nc2ccc3nc(SCC(=O)Nc4ccc(F)c(Cl)c4)sc3c2)cc1`, the inhibition at 10 µM in the assay on MDA-MB-468 [1] was 2.47%.
Regarding `C[C@H](NC(=O)CSc1nc2ccc(NC(=O)c3ccc(OCc4ccccc4)cc3)cc2s1)c1ccccc1`, the inhibition at 10 µM with MDA-MB-468 [1] stood at 3.02%. Further, the inhibition in [2] came out at 11.5%.
Consider `COc1ccc(C(=O)Nc2ccc3nc(SCC(=O)Nc4c(C)cccc4C)sc3c2)cc1`, for which, in the assay with MDA-MB-468 [1], the inhibition at 10 µM stood at 5.01%. Also, the inhibition in [2] was -5.89%.
For `CCCCOc1ccc(C(=O)Nc2ccc3nc(SCC(=O)N[C@@H](C)c4ccccc4)sc3c2)cc1`, in that order: 57.2% and 30.9%.
For `COc1ccccc1C(=O)Nc1ccc2nc(SCC(=O)Nc3c(C)cccc3C)sc2c1`, the inhibition at 10 µM in the assay on MDA-MB-468 [1] was determined as 39%. The inhibition in assay [2] stood at 21.5%.
For `CCCCCOc1ccc(C(=O)Nc2ccc3nc(SCC(=O)Nc4c(CC)cccc4CC)sc3c2)cc1`, in that order: 24.1% and 18.9%.
`CCC(Sc1nc2ccc(NC(=O)c3ccc(OC)cc3)cc2s1)C(=O)Nc1ccc(Br)cc1` (centres undefined): the inhibition entry in assay [3] is “Active”. Besides, the outcome (in assay [4]; with HepG2 [5]; with HepG2 [7]) was inactive. For the same compound, the inhibition in assay [10] amounted to 6.17%; in assay [2], 34.8%. Moreover, the pIC50 in the assay with MDA-MB-468 [6] is 5.05. In addition, the inhibition at 10 µM in the assay on MDA-MB-468 [1] amounted to 66.4%.
As to `CCc1cccc(CC)c1NC(=O)CSc1nc2ccc(NC(=O)C3CC3)cc2s1`, the inhibition at 10 µM in the assay on MDA-MB-468 [1] turned out to be 32.4%. Besides, in assay [2], the inhibition was -9.23%.

Values taken from ChEMBL document CHEMBL2331222, “Discovery of novel inhibitors of signal transducer and activator of transcription 3 (STAT3) signaling pathway by virtual screening” (Eur J Med Chem, 2013).
